Reference: publication PMC6572064, “Discovery of 2-(1-(3-(4-Chloroxyphenyl)-3-oxo- propyl)pyrrolidine-3-yl)-1H-benzo[d]imidazole-4-carboxamide: A Potent Poly(ADP-ribose) Polymerase (PARP) Inhibitor for Treatment of Cancer” (Molecules, 2019)
Read-outs that look alike come from different tables or passages of the source.

How the values were obtained:
[1] = test system: MDA-MB-436 (a BRCA-1-mutated breast cancer cell line); assay: Cell proliferation assay, three-day, CellTiter-Glo, MDA-MB-436; format: cell-based; conditions: Homo sapiens; for inhibition at 0.00508 µM: MDA-MB-436, MDA-MB-436, Conc. 0.00508 uM; for inhibition at 0.0152 µM: MDA-MB-436, MDA-MB-436, Conc. 0.0152 uM; for inhibition at 0.0457 µM: MDA-MB-436, MDA-MB-436, Conc. 0.0457 uM; for inhibition at 0.41 µM: MDA-MB-436, MDA-MB-436, Conc. 0.41 uM; for inhibition at 1.23 µM: MDA-MB-436, MDA-MB-436, Conc. 1.23 uM; for inhibition at 3.7 µM: MDA-MB-436, MDA-MB-436, Conc. 3.70 uM; for inhibition at 11.11 µM: MDA-MB-436, MDA-MB-436, Conc. 11.11 uM; for inhibition at 33.33 µM: MDA-MB-436, MDA-MB-436, Conc. 33.33 uM; for inhibition at 100 µM: MDA-MB-436, MDA-MB-436, Conc. 100.00 uM; for IC50: MDA-MB-436, 72 h, CellTiter-Glo, read-out: MDA-MB-436 IC50
In short: (§1)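 Cells seeded overnight in 384-well plates, then exposed to compounds (DMSO stock diluted in medium) for 72 h at 37 °C, 5% CO2. Viability read as CellTiter-Glo luminescence after 60 min at room temperature.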

[2] = target: T1, PARP-2 (Homo sapiens, UniProt Q9UGN5); assay: PARP-2 inhibition assay (PARP-2 Chemiluminescent Assay Kit, BPS Bioscience); format: biochemical; conditions: 10 nM compound
T1 construct: purchased BPS Bioscience 80552
Method: (§2) The PARP-1 and PARP-2 inhibition assays were performed in outsourcing, by a CRO company, Shanghai Medicilon Inc. (Shanghai, China). […] Briefly, PARP-1 or PARP-2 biotinylated substrate was incubated with compounds or solvent control at varying concentrations and an assay buffer containing the PARP-1 or PARP-2 enzyme.

[3] = target: T2, PARP-1 (Homo sapiens, UniProt P09874); assay: PARP-1 inhibition assay (PARP-1 Chemiluminescent Assay Kit, BPS Bioscience); format: biochemical; conditions: 10 nM compound
T2 construct: purchased BPS Bioscience 80569
Method: as §2

[4] = test system: CAPAN-1 (a BRCA-2-mutated pancreatic cancer cell line); assay: Cell proliferation assay, three-day, CellTiter-Glo, CAPAN-1; format: cell-based; conditions: Homo sapiens; for IC50: CAPAN-1, 72 h, CellTiter-Glo, read-out: CAPAN-1 IC50; for inhibition at 0.00508 µM: CAPAN-1, Conc. 0.00508 uM; for inhibition at 0.0152 µM: CAPAN-1, Conc. 0.0152 uM; for inhibition at 0.0457 µM: CAPAN-1, Conc. 0.0457 uM; for inhibition at […]: CAPAN-1, Conc. 0.14 uM; for inhibition at 0.41 µM: CAPAN-1, Conc. 0.41 uM; for inhibition at 1.23 µM: CAPAN-1, Conc. 1.23 uM; for inhibition at 3.7 µM: CAPAN-1, Conc. 3.70 uM; for inhibition at 11.11 µM: CAPAN-1, Conc. 11.11 uM; for inhibition at 33.33 µM: CAPAN-1, Conc. 33.33 uM; for inhibition at 100 µM: CAPAN-1, Conc. 100.00 uM
In short: as §1

[5] = supplement sheet, read-out: 10 nM inhibition% PAPR-2
[6] = read-out: PARP-2 Inhibition % (10 nM)
[7] = supplement sheet, read-out: 10 nM inhibition% PAPR-1
[8] = read-out: PARP-1 Inhibition % (10 nM)

T1 sequence (Q9UGN5 whole entry): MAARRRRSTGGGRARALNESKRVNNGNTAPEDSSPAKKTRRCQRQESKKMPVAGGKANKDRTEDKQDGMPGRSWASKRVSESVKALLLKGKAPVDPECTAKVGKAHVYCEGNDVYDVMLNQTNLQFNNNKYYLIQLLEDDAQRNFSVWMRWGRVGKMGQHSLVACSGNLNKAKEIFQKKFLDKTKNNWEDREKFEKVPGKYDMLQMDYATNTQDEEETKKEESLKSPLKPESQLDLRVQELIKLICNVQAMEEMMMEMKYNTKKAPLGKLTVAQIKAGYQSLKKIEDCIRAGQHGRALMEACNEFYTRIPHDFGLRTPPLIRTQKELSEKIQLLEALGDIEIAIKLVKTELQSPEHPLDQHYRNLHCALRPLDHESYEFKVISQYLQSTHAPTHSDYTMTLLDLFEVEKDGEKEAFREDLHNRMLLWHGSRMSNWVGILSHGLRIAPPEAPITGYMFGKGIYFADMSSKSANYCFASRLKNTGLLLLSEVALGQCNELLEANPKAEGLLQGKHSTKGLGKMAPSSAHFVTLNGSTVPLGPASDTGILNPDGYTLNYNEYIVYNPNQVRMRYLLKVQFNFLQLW
T2 sequence (P09874 whole entry): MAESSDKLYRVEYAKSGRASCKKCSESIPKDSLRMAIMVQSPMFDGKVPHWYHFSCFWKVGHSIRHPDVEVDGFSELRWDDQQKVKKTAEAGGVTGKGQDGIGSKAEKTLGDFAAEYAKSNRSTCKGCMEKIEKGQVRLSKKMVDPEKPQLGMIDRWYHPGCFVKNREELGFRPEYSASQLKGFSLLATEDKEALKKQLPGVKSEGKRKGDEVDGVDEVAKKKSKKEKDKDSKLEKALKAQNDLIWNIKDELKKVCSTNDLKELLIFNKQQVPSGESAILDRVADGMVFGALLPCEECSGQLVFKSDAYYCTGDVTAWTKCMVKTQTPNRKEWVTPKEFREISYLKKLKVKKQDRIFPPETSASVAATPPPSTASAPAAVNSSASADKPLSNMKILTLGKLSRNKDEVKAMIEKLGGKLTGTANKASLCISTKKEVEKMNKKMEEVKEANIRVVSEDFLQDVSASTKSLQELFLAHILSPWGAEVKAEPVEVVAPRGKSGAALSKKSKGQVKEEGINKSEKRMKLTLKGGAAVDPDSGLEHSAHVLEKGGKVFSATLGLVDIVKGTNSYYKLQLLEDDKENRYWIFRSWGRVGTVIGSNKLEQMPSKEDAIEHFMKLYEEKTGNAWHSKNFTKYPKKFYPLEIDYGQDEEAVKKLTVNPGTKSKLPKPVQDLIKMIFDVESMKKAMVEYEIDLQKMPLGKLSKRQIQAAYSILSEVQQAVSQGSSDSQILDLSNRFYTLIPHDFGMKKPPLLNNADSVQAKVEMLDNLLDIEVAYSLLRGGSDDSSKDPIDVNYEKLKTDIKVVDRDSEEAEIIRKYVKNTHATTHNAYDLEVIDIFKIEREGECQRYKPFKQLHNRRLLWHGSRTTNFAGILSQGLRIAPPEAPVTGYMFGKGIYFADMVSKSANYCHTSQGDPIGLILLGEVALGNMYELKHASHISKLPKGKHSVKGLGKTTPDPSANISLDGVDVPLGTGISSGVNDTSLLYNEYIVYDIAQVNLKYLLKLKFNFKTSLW

## NCCN1CCC(c2nc3c(C(N)=O)cccc3[nH]2)C1 (stereo not shown) [Compound 5cm, 2-(1-(2-Aminoethyl)pyrrolidin-3-yl)-1H-benzo[d]imidazole-4-carboxamide]
[1]; replicate 1, read-out: Inh % 1
  inhibition at 0.00508 µM: -8.5%
  inhibition at 0.0152 µM: 1.1%
  inhibition at 0.0457 µM: -11.2%
  inhibition at 0.41 µM: -6.2%
  inhibition at 1.23 µM: -5.3%
  inhibition at 3.7 µM: -4.9%
  inhibition at 11.11 µM: -3.6%
  inhibition at 33.33 µM: 3%
  inhibition at 100 µM: 16.7%
[1]; replicate 2, read-out: Inh % 2
  inhibition at 0.00508 µM: -9.3%
  inhibition at 0.0152 µM: -4.9%
  inhibition at 0.0457 µM: -10.5%
  inhibition at 0.41 µM: -16.8%
  inhibition at 1.23 µM: -11.1%
  inhibition at 3.7 µM: -6.8%
  inhibition at 11.11 µM: -6.5%
  inhibition at 33.33 µM: -4.3%
  inhibition at 100 µM: 7.9%
[1]
  IC50: > 100 µM
[2]; [5]
  inhibition at 0.01 µM: 32.8%
[2]; [6]
  inhibition at 0.01 µM: 32.8%
[3]; [7]
  inhibition at 0.01 µM: 24.8%
[3]; [8]
  inhibition at 0.01 µM: 24.8%
[4]
  IC50: > 100 µM
[4]; replicate 1, read-out: Inh % 1
  inhibition at 0.00508 µM: -3.2%
  inhibition at 0.0152 µM: -3%
  inhibition at 0.0457 µM: -3.1%
  inhibition at […]: 0.182%
  inhibition at 0.41 µM: 4%
  inhibition at 1.23 µM: -2.5%
  inhibition at 3.7 µM: 0.8%
  inhibition at 11.11 µM: -3.4%
  inhibition at 33.33 µM: -1.1%
  inhibition at 100 µM: 0.459%
[4]; replicate 2, read-out: Inh % 2
  inhibition at 0.00508 µM: 4.5%
  inhibition at 0.0152 µM: -13.2%
  inhibition at 0.0457 µM: -9.3%
  inhibition at […]: -8.2%
  inhibition at 0.41 µM: -2.2%
  inhibition at 1.23 µM: -0.9%
  inhibition at 3.7 µM: 2.3%
  inhibition at 11.11 µM: 4.2%
  inhibition at 33.33 µM: -7.7%
  inhibition at 100 µM: -6%

## NC(=O)c1cccc2[nH]c(C3CCN(CCCNC(=O)c4ccccc4)C3)nc12 (stereo not shown) [Compound 5cn, 2-(1-(3-Benzamidopropyl)pyrrolidin-3-yl)-1H-benzo[d]imidazole-4-carboxamide]
[1]; replicate 1, read-out: Inh % 1
  inhibition at 0.00508 µM: 1.6%
  inhibition at 0.0152 µM: -1.4%
  inhibition at 0.0457 µM: -9.2%
  inhibition at 0.41 µM: -8.3%
  inhibition at 1.23 µM: -3%
  inhibition at 3.7 µM: -5.2%
  inhibition at 11.11 µM: -2.1%
  inhibition at 33.33 µM: 12.1%
  inhibition at 100 µM: 21.7%
[1]; replicate 2, read-out: Inh % 2
  inhibition at 0.00508 µM: -5.1%
  inhibition at 0.0152 µM: -3.5%
  inhibition at 0.0457 µM: -11%
  inhibition at 0.41 µM: -13.4%
  inhibition at 1.23 µM: -5.3%
  inhibition at 3.7 µM: -8.2%
  inhibition at 11.11 µM: -9.2%
  inhibition at 33.33 µM: 1.5%
  inhibition at 100 µM: 20.8%
[1]
  IC50: > 100 µM
[2]; [5]
  inhibition at 0.01 µM: 39.1%
[2]; [6]
  inhibition at 0.01 µM: 39.1%
[3]; [7]
  inhibition at 0.01 µM: 19.4%
[3]; [8]
  inhibition at 0.01 µM: 19.4%
[4]
  IC50: > 100 µM
[4]; replicate 1, read-out: Inh % 1
  inhibition at 0.00508 µM: 9.5%
  inhibition at 0.0152 µM: -9.3%
  inhibition at 0.0457 µM: 1%
  inhibition at […]: 4.6%
  inhibition at 0.41 µM: -2.8%
  inhibition at 1.23 µM: 3.1%
  inhibition at 3.7 µM: 5.2%
  inhibition at 11.11 µM: 2.8%
  inhibition at 33.33 µM: 5.2%
  inhibition at 100 µM: 27.8%
[4]; replicate 2, read-out: Inh % 2
  inhibition at 0.00508 µM: -3.8%
  inhibition at 0.0152 µM: -9.4%
  inhibition at 0.0457 µM: 6.5%
  inhibition at […]: -10%
  inhibition at 0.41 µM: -4.1%
  inhibition at 1.23 µM: -3.2%
  inhibition at 3.7 µM: -3%
  inhibition at 11.11 µM: -7.6%
  inhibition at 33.33 µM: 2%
  inhibition at 100 µM: 14.3%
